Experiments:
[1] = system: cysts (bradyzoite form) of murine brains; test: ex vivo treatment of cysts of murine brains, re-inoculated intraperitoneally to mice; format: in vivo, Toxoplasma gondii; details: cysts treated ex vivo at 200 nM for 7 days, Figure 3
Description: The cyclic peptide (IV′f) was then tested on cysts (bradyzoite form) of murine brains ex vivo at 200 nM (Figure 3). The cysts after treatment for 7 days with the cyclic peptide (IV′f) were re-inoculated intraperitonally to the mice.

[2] = system: non-infected human fibroblasts (HFF); format: cell-based
Description: (§1) The synthesized cyclic peptides were subject to tests in vitro on human fibroblasts infected by Toxoplasma gondii (Toxo), on non-infected human fibroblasts (HFF) and on HeLa cancer cells (cervical cancer) and MCF-7 cancer cells (breast cancer). Their respective efficiencies were tested at 90 nM as a preliminary test. The results are illustrated in Figure 1.

[3] = system: Toxoplasma gondii; format: cell-based
Description: as §1

[4] = system: MCF-7 cancer cells (breast cancer); format: cell-based
Description: as §1

[5] = system: HeLa cancer cells (cervical cancer); format: cell-based
Description: as §1

EC50 [4]: 533 nM
EC50 [5]: 474 nM
EC90 [5]: 1010 nM
Structure (SMILES): C[C@@H](O)C(=O)CCCCC[C@@H]1NC(=O)[C@H]2CCCN2C(=O)[C@H](Cc2ccccc2)NC(=O)C(C)(C)NC1=O [(IV′f), (3S,9S,14aR)-9-benzyl-3-((R)-7-hydroxy-6-oxooctyl)-6,6-dimethyldecahydropyrrolo[1,2-a][1,4,7,10]tetraazacyclododecine-1,4,7,10-tetraone]
cysts in mice after injection of treated cysts [1]: do not exhibit any cyst
EC50 [2]: 647 nM
EC90 [2]: 4.11 µM
EC50 [3]: 28.6 nM
EC90 [3]: 79.7 nM
efficiency in preliminary test ([3]; 90 nM, Figure 1): interesting preliminary results
activity compared with apicidin ([3]; Figure 2): activity close to that of apicidin
effectiveness ([3]; Figure 2): very good effectiveness, of the order of the nanomolar
efficiency compared with pyrimethamine ([3]; Figure 2): much greater efficiency relatively to pyrimethamine
